Tests used:
[1] = test system: MT4; test: Inhibition of the spread of HIV infection wild type(WT) in MT-4 human T-lymphoid cells; type: functional; settings: read-out: CIC95
[2] = test system: MT4; test: Inhibition of the spread of HIV infection (V-18C) in MT-4 human T-lymphoid cells; type: functional; settings: read-out: CIC95
[3] = test system: MT4; test: Inhibition of the spread of HIV infection (K-60C) in MT-4 human T-lymphoid cells; type: functional; settings: read-out: CIC95
[4] = target: T1, Human immunodeficiency virus type 1 protease (Human immunodeficiency virus 1, UniProt Q72874); test: Inhibition of HIV protease of HIV V-18C mutant strain
[5] = target: T1, Human immunodeficiency virus type 1 protease; test: Inhibition of wild type HIV protease
[6] = target: T1, Human immunodeficiency virus type 1 protease; test: Inhibition of HIV protease of HIV K-60C mutant strain

SMILES | IC95 [1] [µM] | IC95 [2] [µM] | IC95 [3] [µM] | IC50 [4] [nM] | IC50 [5] [nM] | IC50 [6] [nM]
Cc1noc(C)c1CNC(=O)[C@H]1N(C(=O)[C@@H](O)C[C@@H](Cc2ccccc2)C(=O)N[C@H]2c3ccccc3OC[C@H]2O)CSC1(C)C | 0.156 | 0.062 | 0.25 | – | – | –
Cc1cccc(C)c1CNC(=O)[C@H]1N(C(=O)[C@@H](O)C[C@@H](Cc2ccccc2)C(=O)N[C@H]2c3ccccc3C[C@H]2O)CSC1(C)C | 0.031 | 0.031 | 0.125 | 0.062 | 0.04 | 0.062
Cc1cccc(C)c1CNC(=O)[C@H]1N(C(=O)[C@@H](O)C[C@@H](Cc2ccccc2)C(=O)N[C@H]2c3ccccc3OC[C@H]2O)CSC1(C)C | 0.047 | 0.062 | 0.5 | – | – | –
Cc1ccnc(C)c1CNC(=O)[C@H]1N(C(=O)[C@@H](O)C[C@@H](Cc2ccccc2)C(=O)N[C@H]2c3ccccc3OC[C@H]2O)CSC1(C)C | 0.187 | 0.125 | 0.25 | – | – | –
Cc1nsc(C)c1CNC(=O)[C@H]1N(C(=O)[C@@H](O)C[C@@H](Cc2ccccc2)C(=O)N[C@H]2c3ccccc3OC[C@H]2O)CSC1(C)C | 0.016 | 0.031 | 0.25 | – | – | –
CC1(C)SCN(C(=O)[C@@H](O)C[C@@H](Cc2ccccc2)C(=O)N[C@H]2c3ccccc3OC[C@H]2O)[C@@H]1C(=O)NCc1c(Cl)cccc1Cl | < 0.008 | 0.016 | 0.25 | – | – | –
Cc1ccccc1CNC(=O)[C@H]1N(C(=O)[C@@H](O)C[C@@H](Cc2ccccc2)C(=O)N[C@H]2c3ccccc3OC[C@H]2O)CSC1(C)C | 0.019 | 0.041 | 0.125 | – | – | –
Cc1cccc(Cl)c1CNC(=O)[C@H]1N(C(=O)[C@@H](O)C[C@@H](Cc2ccccc2)C(=O)N[C@H]2c3ccccc3OC[C@H]2O)CSC1(C)C | 0.031 | 0.023 | 0.046 | – | – | –
CC1(C)SCN(C(=O)[C@@H](O)C[C@@H](Cc2ccccc2)C(=O)N[C@H]2c3ccccc3OC[C@H]2O)[C@@H]1C(=O)NCc1c(F)cccc1F | 0.023 | 0.062 | 0.25 | – | – | –
Cc1cccc(C)c1CNC(=O)[C@H]1N(C(=O)[C@H](O)C[C@@H](Cc2ccccc2)C(=O)N[C@H]2c3ccccc3OC[C@H]2O)CSC1(C)C | 0.015 | 0.015 | 0.07 | – | – | –
Cc1ccccc1CNC(=O)[C@H]1N(C[C@@H](O)C[C@@H](Cc2ccccc2)C(=O)N[C@H]2c3ccccc3OC[C@H]2O)CSC1(C)C | 0.25 | 1 | > 1 | 8.8 | 0.52 | 7.9
CC(C)(C)NC(=O)[C@@H]1CN(Cc2cccnc2)CCN1C[C@@H](O)C[C@@H](Cc1ccccc1)C(=O)N[C@H]1c2ccccc2C[C@H]1O | 0.045 | 0.89 | 1 | – | – | –

From ChEMBL document CHEMBL1136401 (Bioorg Med Chem Lett, 2003)
